In ChEMBL document CHEMBL3046359, “QSAR and pharmacophore studies of telomerase inhibitors” (Med Chem Res, 2012):

What was measured:
[1] = target: Telomerase reverse transcriptase (Homo sapiens) (UniProt O14746); experiment: Inhibition of telomerase (unknown origin)
[2] = target: Telomerase reverse transcriptase (Homo sapiens) (UniProt O14746); experiment: Inhibition of telomerase in Homo sapiens (human) A549 cells after 24 hr by TRAP assay; type: cell-based
[3] = target: Telomerase reverse transcriptase (Homo sapiens) (UniProt O14746); experiment: Inhibition of Homo sapiens (human) telomerase
[4] = target: Telomerase reverse transcriptase (Homo sapiens) (UniProt O14746); experiment: Inhibition of telomerase in Homo sapiens (human) A549 cells by TRAP assay; type: cell-based

Sequence of Telomerase reverse transcriptase (Homo sapiens) (O14746 whole entry): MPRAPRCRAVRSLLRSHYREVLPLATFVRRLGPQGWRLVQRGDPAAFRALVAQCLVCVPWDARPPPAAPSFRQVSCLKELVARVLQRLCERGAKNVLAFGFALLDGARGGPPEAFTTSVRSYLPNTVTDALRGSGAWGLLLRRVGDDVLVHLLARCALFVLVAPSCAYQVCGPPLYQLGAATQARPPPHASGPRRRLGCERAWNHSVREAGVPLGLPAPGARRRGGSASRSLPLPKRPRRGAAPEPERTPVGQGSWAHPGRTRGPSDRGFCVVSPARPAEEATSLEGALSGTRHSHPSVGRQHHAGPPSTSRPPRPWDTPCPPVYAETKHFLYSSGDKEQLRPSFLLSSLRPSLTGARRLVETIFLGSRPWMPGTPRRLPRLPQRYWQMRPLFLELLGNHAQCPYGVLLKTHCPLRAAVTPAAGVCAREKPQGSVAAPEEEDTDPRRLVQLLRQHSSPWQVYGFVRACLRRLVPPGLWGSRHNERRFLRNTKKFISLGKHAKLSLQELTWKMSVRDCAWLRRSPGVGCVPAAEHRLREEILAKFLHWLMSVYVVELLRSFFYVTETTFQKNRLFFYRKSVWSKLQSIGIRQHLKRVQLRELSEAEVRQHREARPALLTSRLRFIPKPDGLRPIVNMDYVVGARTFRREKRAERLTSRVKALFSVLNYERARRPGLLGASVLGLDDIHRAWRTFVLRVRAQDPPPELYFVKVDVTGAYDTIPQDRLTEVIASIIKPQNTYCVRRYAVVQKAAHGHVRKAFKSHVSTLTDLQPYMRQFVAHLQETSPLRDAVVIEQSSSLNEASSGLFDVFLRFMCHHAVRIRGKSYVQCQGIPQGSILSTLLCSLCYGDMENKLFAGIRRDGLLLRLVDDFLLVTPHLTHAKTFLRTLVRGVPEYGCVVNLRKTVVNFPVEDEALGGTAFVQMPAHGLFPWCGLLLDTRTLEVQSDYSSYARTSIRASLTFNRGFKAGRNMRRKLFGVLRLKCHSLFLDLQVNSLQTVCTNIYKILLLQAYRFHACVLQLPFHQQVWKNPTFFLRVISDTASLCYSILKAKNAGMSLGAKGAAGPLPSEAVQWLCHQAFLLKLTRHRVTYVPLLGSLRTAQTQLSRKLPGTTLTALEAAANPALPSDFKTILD

Compound	logIC50 [1]	further results
CCN(CC)CCC(=O)Nc1ccc2c(c1)C(=O)c1cc(NC(=O)CCN(CC)CC)ccc1-2	1.19	–
C[N+]1(CCC(=O)Nc2ccc3c(c2)C(=O)c2cc(NC(=O)CC[N+]4(C)CCCCC4)ccc2-3)CCCCC1	1.32	–
CCCNCc1ccc2nc3c(ccc4cc5cc(CNCCC)ccc5nc43)cc2c1	-0.3	–
c1ccc2nc3cc(CNCCN4CCCCC4)c4nc5ccccc5cc4c3cc2c1	0.3	–
CCN(CC)CCOc1ccc2c(c1)OC1C(=O)c3ccccc3C(=O)C21 (stereo unspecified)	0.84	–
O=C(CCN1CCCC1)Nc1ccc2cc3ccc(NC(=O)CCN4CCCC4)cc3nc2c1	–	logIC50 [2]: 0.72
O=C(CCN1CCCCC1CCO)Nc1ccc2c(c1)C(=O)c1cc(NC(=O)CCN3CCCCC3CCO)ccc1-2 (stereo unspecified)	1.22	–
CCCNCc1ccc2nc3ccc4nc5ccc(CNCCC)cc5cc4c3cc2c1	0	–
COc1ccc2ccc3c([nH]c4c5ccccc5nc(NCCN(C)C)c34)c2c1	0.1	–
CC[N+](C)(CC)CCC(=O)Nc1ccc2c(c1)C(=O)c1cc(NC(=O)CC[N+](C)(CC)CC)ccc1-2	1.4	–
Cc1cn(CCCn2cc(CC(=O)NCCCCCCCCCCCC(=O)O)c3ccccc32)c2ccccc12	–	logIC50 [3]: 1.3
O=C(O)CCCCCCCCCCCNC(=O)Cc1cn(CCCOc2ccccc2)c2ccccc12	–	logIC50 [3]: 1.51
C[N+]1(CCC(=O)Nc2ccc3c(c2)C(=O)c2cc(NC(=O)CC[N+]4(C)CCOCC4)ccc2-3)CCOCC1	1.44	–
CN(C)CCCNCc1ccc2nc3ccc4cc5cc(CNCCCN(C)C)ccc5nc4c3cc2c1	-1.55	–
CCCNCc1ccc2nc3ccc4cc5cc(CNCCC)ccc5nc4c3cc2c1	-0.52	–
O=C(O)CCCCCCCCCCCNC(=O)Cc1c2n(c3ccccc13)CCn1c-2cc2ccccc21	–	logIC50 [4]: 1.79
O=C(O)CCCCCCCCCCCNC(=O)Cc1cn(CCOc2cccc3ccccc23)c2ccccc12	–	logIC50 [3]: 1.54
O=C(CCN1CCC(O)CC1)Nc1ccc2c(c1)C(=O)c1cc(NC(=O)CCN3CCC(O)CC3)ccc1-2	1.27	–
Cc1c2n(c3ccccc13)CCCn1c-2c(CC(=O)NCCCCCCCCCCCC(=O)O)c2ccccc21	–	logIC50 [3]: 1.91
O=C(CCN1CCCCC1)Nc1ccc2c(c1)C(=O)c1cc(NC(=O)CCN3CCCCC3)ccc1-2	0.95	–
CCC1CCCCN1CCC(=O)Nc1ccc2c(c1)C(=O)c1cc(NC(=O)CCN3CCCCC3CC)ccc1-2 (stereo unspecified)	1.15	–
O=C(O)CCCCCCCCCCCNC(=O)Cc1cn(CCCn2ccc3ccccc32)c2ccccc12	–	logIC50 [3]: 1.96
CSc1nc(Nc2ccc3nc(C)cc(N(C)C)c3c2)nc(Nc2ccc3nc(C)cc(N(C)C)c3c2)n1	-1.39	–

Compound	logIC50 [1]	further results
O=C(CCN1CCCCCC1)Nc1ccc2cc3ccc(NC(=O)CCN4CCCCCC4)cc3nc2c1	–	logIC50 [2]: 0.49
O=C(CCN1CCCCCC1)Nc1ccc2c(c1)C(=O)c1ccc(NC(=O)CCN3CCCCCC3)cc1C2=O	–	logIC50 [2]: 1.11
CN(C)CCc1ccc2nc3c4ccccc4n(CCN(C)C)c3cc2c1	1.2	–
CN(C)CCC(=O)Nc1ccc2c(c1)C(=O)c1cc(NC(=O)CCN(C)C)ccc1-2	1.21	–
CCN1CCN(CCC(=O)Nc2ccc3c(c2)C(=O)c2cc(NC(=O)CCN4CCN(CC)CC4)ccc2-3)CC1	1.23	–
CN(C)CCCNCc1ccc2nc3c(ccc4cc5cc(CNCCCN(C)C)ccc5nc43)cc2c1	-0.04	–
O=C(CCN1CCCCC1CO)Nc1ccc2c(c1)C(=O)c1cc(NC(=O)CCN3CCCCC3CO)ccc1-2 (stereo unspecified)	0.9	–
O=C(O)CCCCCCCCCCCNC(=O)Cc1cn(CCCOC2CCCCC2)c2ccccc12	–	logIC50 [3]: 1.83
O=C(CCN1CCCCC1)Nc1ccc2cc3ccc(NC(=O)CCN4CCCCC4)cc3nc2c1	–	logIC50 [2]: 0.45
C[n+]1cccc2cc(Nc3nc(N)nc(Nc4ccc5c(ccc[n+]5C)c4)n3)ccc21	-0.89	–
C[N+]1(CCC(=O)Nc2ccc3c(c2)C(=O)c2cc(NC(=O)CC[N+]4(C)CCCCC4CO)ccc2-3)CCCCC1CO (stereo unspecified)	1.52	–
C[N+](C)(C)CCC(=O)Nc1ccc2c(c1)C(=O)c1cc(NC(=O)CC[N+](C)(C)C)ccc1-2	1.27	–
Cc1oc2nc1-c1nc(co1)-c1nc(co1)-c1nc(co1)-c1nc(co1)-c1nc(co1)C1=NC(CS1)c1nc-2c(C)o1 (stereo unspecified)	-2.3	–
C[N+](C)(C)c1ccc(Nc2nc(N)nc(Nc3ccc([N+](C)(C)C)cc3)n2)cc1	0.84	–
CN(C)CCCNc1nc2ccccc2c2[nH]c3c4cc([N+](=O)[O-])ccc4ccc3c12	-0.3	–
O=C(O)CCCCCCCCCCCNC(=O)Cc1cn(CCn2ccc3ccccc32)c2ccccc12	–	logIC50 [3]: 1.61
COc1ccc2c(ccc3c2[nH]c2c4ccccc4nc(NCCCN(C)C)c32)c1	0	–
O=C(CCN1CCCCC1)Nc1ccc2c(c1)C(=O)c1ccc(NC(=O)CCN3CCCCC3)cc1C2=O	–	logIC50 [2]: 0.65
CN1CCN(CCC(=O)Nc2ccc3c(c2)C(=O)c2cc(NC(=O)CCN4CCN(C)CC4)ccc2-3)CC1	1.64	–
CCCNCc1cc2nc3ccccc3cc2c2cc3ccccc3nc12	0.16	–
CC1CCCCN1CCC(=O)Nc1ccc2c(c1)C(=O)c1cc(NC(=O)CCN3CCCCC3C)ccc1-2 (stereo unspecified)	1.08	–
CN(C)CCCNCc1cc2nc3ccccc3cc2c2cc3ccccc3nc12	-0.12	–
O=C(CCN1CCCC1)Nc1ccc2c(c1)C(=O)c1ccc(NC(=O)CCN3CCCC3)cc1C2=O	–	logIC50 [2]: 0.25
